Test results reported in patent US20240335431A1, “1-H-PYRROLO[2,3-c]PYRIDINE COMPOUNDS” (Acerta Pharma B.V., priority 2023, published 2024).

Columns and labels:
[1] = system: MV-4-11 AML cells; test: MLLr AML xenograft model MV-4-11; type: in vivo, female CB17 SCID mice; conditions: for % REGRESSION AT DOSING END / % TUMOR REGROWTH AT STUDY END: 14 days
Method: MV-4-11 cells were grown in RPM1 1640 (Gibco, #21875091) supplemented with 10% FBS (Gibco; #10091-148) and 1% Pen/Strep (Gibco; #15140-122). Cells were harvested and resuspended in PBS/Matrigel (Corning; #CLS354234) (50/50). The compound of Example 56-2 was formulated in water at pH 4.5-5 using 1 M MSA as pH-adjusting agent at the concentrations up to 100 mg/mL to achieve a uniform suspension and dosed twice daily by oral gavage 10 mL/kg. For convenience, the compound of Example 56-2 is referred to as “Compound 56-2” in this Example and the other Examples.
10 million human MV-4-11 AML cells were implanted subcutaneously in the right flank of female CB17 SCID mice. Mice were randomized into groups of 5 when average tumor volume reached approximately 160 mm^3. Mice were treated for 14 days with vehicle (water at pH 4.5-5 using 1M MSA) or Compound 56-2 at 30, 100, or 200 mg/kg. Compound 56-2 was dosed orally twice daily 8/16 hours apart. The group administered Compound 56-2 at 30, 100, 200 mg/kg were monitored for regrowth for 6 weeks. […] FIG. 1 illustrates the effect of treatment with Compound 56-2 on tumor volume in this MLLr MV-4-11 human AML cancer xenograft mouse model.

[2] = target: Menin protein (Homo sapiens (Human), UniProt O00255); test: Menin protein degradation in MV-4-11 SILAC cells (pulse SILAC, PRM); type: cell-based; conditions: 300 nM
Chain of Menin protein (O00255 whole entry): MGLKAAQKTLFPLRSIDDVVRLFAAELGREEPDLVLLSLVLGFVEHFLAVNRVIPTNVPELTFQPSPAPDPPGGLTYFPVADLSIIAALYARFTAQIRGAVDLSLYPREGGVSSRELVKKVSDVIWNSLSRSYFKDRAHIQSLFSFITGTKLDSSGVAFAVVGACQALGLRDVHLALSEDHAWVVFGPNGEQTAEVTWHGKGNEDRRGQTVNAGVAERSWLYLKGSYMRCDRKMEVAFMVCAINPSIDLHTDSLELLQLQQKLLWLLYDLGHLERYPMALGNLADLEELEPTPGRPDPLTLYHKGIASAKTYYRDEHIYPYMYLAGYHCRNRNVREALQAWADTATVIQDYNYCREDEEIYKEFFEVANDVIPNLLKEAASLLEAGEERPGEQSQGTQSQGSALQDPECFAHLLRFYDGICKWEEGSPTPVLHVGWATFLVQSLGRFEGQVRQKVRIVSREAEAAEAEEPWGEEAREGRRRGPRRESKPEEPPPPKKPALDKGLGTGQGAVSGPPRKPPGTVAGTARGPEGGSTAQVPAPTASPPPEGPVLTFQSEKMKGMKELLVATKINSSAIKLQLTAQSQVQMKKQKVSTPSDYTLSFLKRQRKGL
Method: An MV-4-11 cell line was passaged at least eight times in SILAC-IMDM (ThermoFisher, #88367), which lacks L-lysine and L-arginine, and supplemented with 10% (v/v) dialyzed FBS (ThermoFisher, #A3382001), [^13C6, ^15N2]-L-lysine, and [^13C6, ^15N4]-L-arginine (Sigma #608041 and #608033) (100 μg/mL each) to achieve “heavy cell” status as determined by LC-MS/MS. Whenever thawed, the “heavy-labelled” cells were passaged at least three times before use in experiments. “Light” medium was prepared by supplementing SILAC-IMDM with 10% (v/v) dialyzed FBS and unlabeled L-arginine and L-lysine (Sigma, #A6969, #L8662). SILAC-IMDM was either supplemented with 300 nM of Compound 56-2 (10 mM solution in DMSO) or the equivalent amounts of DMSO as control. Cells were transferred to “light” media, incubated at 37° C., 5% CO2, and collected at various time points (0 hrs, 1 hrs, 2 hrs, 4.25 hrs, 10.25 hrs, 20.75 hrs, 28.5 hrs, 47 hrs, 72 hrs) by two washes with ice cold PBS and pelleted by centrifugation.
Cell pellets (approximately 2×10^5 cells) were transferred to 96-well plate using cell lysis buffer (4% SDS, 50 mM HEPES pH 7.4, 5 mM TCEP, and 10 mM chloroacetamide) and heated to 95° C. for 10 minutes. […] The PRM data were analyzed with Skyline (University of Washington, Seattle, WA., Ref.) using high-selectivity data extraction. […]

[3] = system: MOLM-13 cells; test: Cell death in MOLM-13 cell line, Compound 56-2 with BCL2 inhibitor venetoclax (CellTiter-Glo, 4 days); type: cell-based, human
Method: Test compound was dispensed using a Tecan compound dispenser into 384-well plates (Microplate 384-well, polypropylene, F-bottom; Greiner Bio-One, #781201) in a ten-by-ten response matrix to assess the combination effects of Menin inhibition (Compound 56-2) together with BCL-2 inhibition (venetoclax) at the following concentrations after subsequent cell seeding in 40 μL of growth media: 10 μM, 3.16 μM, 1 μM, 0.316 μM, 0.1 μM, 0.0316 μM, 0.01 μM, 0.00316 μM, […], and vehicle (DMSO; Sigma-Aldrich, D2650). Cells were seeded at 1000 cells per well and incubated at 37° C. and 5% CO2. MOLM-13 cells were grown in RPM1 1640 (Gibco, #21875091) supplemented with 10% FBS (Gibco; #10091-148) and 1% Pen/Strep (Gibco; #15140-122). After 4 days of compound treatment, plates were placed at room temperature for 15 minutes. 10 μL CellTiter-Glo reagent (Promega, #G9242) was added to the cells and incubated for 10 minutes in the dark on a plate shaker at room temperature. A backseal (Perkin Elmer; #6005199) was added to the plates and luminescence was measured at 0.1 sec/well in an Envision (Perkin Elmer). Data were normalized for each plate so that the average of control wells (DMSO) was set to 0%, and the maximum observed value across the plate was set as 100%. Data fitting was performed using Graphpad Prism and combination effect was assessed using SynergyFinder.

Cc1c(C(=O)C2CCN(C(=O)[C@@H]3CCC(C)(C)N3)CC2)c2ccncc2n1-c1ccc(F)cc1C(=O)N(C(C)C)C(C)C (single isomer, unassigned) [Compound 56-2]
% REGRESSION AT DOSING END ([1]; 30 mg/kg oral twice daily): 88% | % TUMOR REGROWTH AT STUDY END ([1]; 30 mg/kg oral twice daily, monitored 6 weeks): 100% | tumor regrowth (in words) ([1]; 100 mg/kg and 200 mg/kg, monitored 6 weeks): no tumor regrowth | % REGRESSION AT DOSING END ([1]; 100 mg/kg oral twice daily): 97% | % TUMOR REGROWTH AT STUDY END ([1]; 100 mg/kg oral twice daily, monitored 6 weeks): 0% | % REGRESSION AT DOSING END ([1]; 200 mg/kg oral twice daily): 99% | % TUMOR REGROWTH AT STUDY END ([1]; 200 mg/kg oral twice daily, monitored 6 weeks): 0% | kdeg (rate of degradation of heavy Menin protein) [2]: 3.89e-05 s⁻¹ | cell viability as monotherapy (in words) [3]: cell viability loss was induced
